# How the values were obtained:
# [1] = system: Rattus norvegicus; test: Improvement in joint mobility at 33 mg/kg p.o. in rat model of arthritis.; assay type: functional; conditions: route oral
# [2] = system: Rattus norvegicus; test: Percent reduction in paw volume (right primary lesion, days 9-18) by 33 mg/kg p.o. in rats.; assay type: functional; conditions: route oral
# [3] = Partition coefficient (logP); conditions: octanol/water
# [4] = system: Rattus norvegicus; test: Percent reduction in paw volume ([…], days 9-18) by 33 mg/kg p.o. in rats.; assay type: functional; conditions: route oral
# [5] = system: Rattus norvegicus; test: Percent reduction in paw volume (right primary lesion, days 0-8) by 33 mg/kg p.o. in rats.; assay type: functional; conditions: route oral
# [6] = system: Rattus norvegicus; test: Antiarthritic activity by measuring percent reduction in paw volume in Sprague Dawley rat by peroral administration of 33 mg/kg; assay type: functional; conditions: route oral
# [7] = system: Rattus norvegicus; test: Antiarthritic activity by measuring % reduction in paw volume in Sprague Dawley rat, peroral administration of 10 mg/kg, volume change in the uninjected paw([…]) measured from day 9 to day 18; assay type: functional; conditions: route oral
Compound,Reduction [1] [%],Reduction [2] [%],logP [3],Reduction [4] [%],Reduction [5],Reduction [6] [%],Reduction [7] [%]
Nc1nc(-c2ccc(Cl)cc2)ns1,18,50,2.83,46,20%,,
O=C(Nc1nc(-c2ccccc2)ns1)OCC(Cl)(Cl)Cl,42,45,,68,50%,,
CC(C)(C)c1cc(-c2noc(N)n2)cc(C(C)(C)C)c1O,89,56,3.72,103,47%,,
Nc1nc(-c2ccccn2)no1,8,22,,66,24%,,
CCCc1nsc(N)n1,47,40,1.12,54,13%,,
Nc1nc(-c2ccccn2)ns1,70,44,1.05,65,8%,,
Nc1nc(-c2ccccc2)ns1,13,51,,84,22%,,
Nc1nc(-c2ncccn2)ns1,30,31,0.08,5,28%,,
Nc1nc(-c2cnccn2)ns1,6,17,0.52,24,10%,,
Nc1nc(-c2cccs2)ns1,7,25,1.77,43,6%,,
Nc1nc(-c2ccncc2)ns1,33,20,1.72,74,11%,,
Cc1nsc(N)n1,84,50,0,66,38%,,
CC(=O)Nc1nc(-c2cc(C(C)(C)C)c(O)c(C(C)(C)C)c2)no1,75,66,,79,80%,,
Nc1nc[nH]n1 [AMITROLE],26,46,,57,27,,
Nc1nc(-c2cccnc2)ns1,24,22,1.58,49,15%,,
Nc1ncns1,69,59,0.66,106,45%,,
CC(C)(C)c1ccc(-c2nsc(N)n2)cc1,18,,1.78,6,27%,2,
Nc1nc(Cc2ccccc2)ns1,36,42,2.05,77,28%,,
Nc1n[nH]c(-c2ccccn2)n1,21,32,,60,3%,,
CC(C)(C)c1nsc(N)n1,28,30,1.78,45,16%,,
C/C=C/C[C@@H](C)[C@@H](O)[C@H]1C(=O)N[C@@H](CC)C(=O)N(C)CC(=O)N(C)[C@@H](CC(C)C)C(=O)N[C@@H](C(C)C)C(=O)N(C)[C@@H](CC(C)C)C(=O)N[C@@H](C)C(=O)N[C@H](C)C(=O)N(C)[C@@H](CC(C)C)C(=O)N(C)[C@@H](CC(C)C)C(=O)N(C)[C@@H](C(C)C)C(=O)N1C [CYCLOSPORINE],,,,,51%,,77

# Source: ChEMBL document CHEMBL1127762, “Five-membered heterocyclic amines as potential anti-rheumatoid arthritis agents” (Bioorg Med Chem Lett, 1994)
